The target of this test is T1, 15-hydroxyprostaglandin dehydrogenase [NAD(+)] (Homo sapiens, UniProt P15428).
T1 sequence (P15428 whole entry): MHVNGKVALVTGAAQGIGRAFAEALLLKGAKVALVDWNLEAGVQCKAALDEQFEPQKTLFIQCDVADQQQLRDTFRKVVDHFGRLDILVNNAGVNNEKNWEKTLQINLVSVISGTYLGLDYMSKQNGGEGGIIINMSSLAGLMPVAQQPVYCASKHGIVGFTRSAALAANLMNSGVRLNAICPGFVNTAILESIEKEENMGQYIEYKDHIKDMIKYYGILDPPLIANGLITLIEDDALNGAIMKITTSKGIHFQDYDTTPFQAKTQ
Nature of the test: Inhibition of human 15PGDH expressed in Escherichia coli BL-21 by fluorescence spectrophotometry.

Each structure is given as a SMILES string.

As to `O=C1N=C(O)S/C1=C\c1ccc(OCCc2cccs2)cc1`, the IC50 – broadly, the concentration that gives 50% inhibition – is 31 nM.

`O=C1N=C(O)S/C1=C\c1ccc(OCCNC2CCCCC2)cc1` yielded an IC50 of 3720 nM. The result for `Cc1ncsc1CCOc1ccc(/C=C2\SC(O)=NC2=O)cc1` reads 636 nM. The same measure for `Cc1ccc(COc2ccc(/C=C3\SC(O)=NC3=O)cc2)cc1`: 232 nM; for `O=C1NC(=O)/C(=C/c2ccc(OCCC3CCCCO3)cc2)S1` (stereo unspecified): 750 nM. The same measure for `O=C1NC(=O)/C(=C/c2ccc(OCc3cccs3)cc2)S1`: 287 nM; for `O=C1N=C(O)S/C1=C\c1ccc(OCc2ccsc2)cc1`: 429 nM. `O=C1NC(=O)/C(=C/c2ccc(OCCC3CCCC3)cc2)S1` had an IC50 of 116 nM. Compound `O=C1S/C(=C\c2ccc(OCCC3CCCCC3)cc2)C(=O)N1CCO` yielded an IC50 of 526 nM. This IC50 lies about 4.5-fold higher than the previous one.

The compound `O=C1NC(=O)/C(=C\c2ccc(OCC3COc4ccccc4O3)cc2)S1` (stereo unspecified) displayed an IC50 of 172 nM.

In turn, `O=C1NC(=O)/C(=C/c2ccc(OCCN3CCOCC3)cc2)S1` displayed an IC50 of 713 nM. The result for `CC(C)OCCOc1ccc(/C=C2\SC(O)=NC2=O)cc1` reads 1250 nM; that for `O=C1N=C(O)S/C1=C\c1ccc(OCCc2ccccn2)cc1`, 660 nM. The same measure for `CC1CCC(COc2ccc(/C=C3\SC(O)=NC3=O)cc2)CC1` (stereo unspecified): 52 nM.

Compound `COC(=O)C1CCC(COc2ccc(/C=C3\SC(=O)NC3=O)cc2)CC1` (stereo unspecified) displayed an IC50 of 620 nM. The compound `O=C1NC(=O)/C(=C\c2ccc(OCc3ccc(-c4ccccc4)cc3)cc2)S1` returned an IC50 of 814 nM.

In turn, `O=C1N=C(O)S/C1=C\c1ccc(OCCN2CCS(=O)(=O)CC2)cc1` gave an IC50 of 274 nM.

`O=C1N=C(O)S/C1=C\c1ccc(OCCN2CCCCC2)cc1` returned an IC50 of 1440 nM. The same measure for `O=C1N=C(O)S/C1=C\c1ccc(OCCCN2CCS(=O)(=O)CC2)cc1`: 1960 nM; for `O=C1NC(=O)/C(=C/c2ccc(OCc3ccco3)cc2)S1`: 893 nM; for `O=C1NC(=O)/C(=C/c2ccc(OCCC3CCCCC3)cc2)N1`: 865 nM. As to `O=C1N=C(O)S/C1=C\c1ccc(OCc2ccc3c(c2)OCO3)cc1`, the half-inhibitory concentration (IC50) turned out to be 252 nM. In turn, `COc1ccc(COc2ccc(/C=C3\SC(=O)NC3=O)cc2)cc1` registered an IC50 of 529 nM.

With `O=C1C/C(=C\c2ccc(OCCC3CCCCC3)cc2)C(=O)N1`, half-maximal inhibition (IC50) was put at 3790 nM. The same measure for `O=C1NC(=O)/C(=C/c2ccc(OCCc3ccsc3)cc2)S1`: 60 nM; for `O=C1NC(=O)/C(=C/c2ccc(OCC3CCCC3)cc2)S1`: 45 nM.
